Source: PubChem BioAssay (NCI)
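Following 48 hours of exposure in 96-well plates, responses at five concentrations were used to interpolate endpoints linearly. Here, GI50 denotes the concentration required for 50% inhibition of growth. Definition used: TGI = concentration required for complete inhibition of growth.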

Legend:
Assay in all cases: growth of human tumour cells (NCI), 48 h
CAKI-1 renal = tested on: CAKI-1 renal
MALME-3M melanoma = tested on: MALME-3M melanoma
RPMI-8226 leukemia = tested on: RPMI-8226 leukemia
RXF 393 renal = tested on: RXF 393 renal
SF-268 CNS = tested on: SF-268 CNS
SF-539 CNS = tested on: SF-539 CNS
SK-OV-3 ovarian = tested on: SK-OV-3 ovarian
NCI-H522 lung = tested on: NCI-H522 lung
MCF7 breast = tested on: MCF7 breast
MDA-MB-435 = tested on: MDA-MB-435

| Structure (SMILES) | TGI (CAKI-1 renal) [µM] | TGI (MALME-3M melanoma) [µM] | TGI (RPMI-8226 leukemia) [µM] | TGI (RXF 393 renal) [µM] | TGI (SF-268 CNS) [µM] | TGI (SF-539 CNS) [µM] | TGI (SK-OV-3 ovarian) [µM] | TGI (NCI-H522 lung) [µM] | GI50 (MALME-3M melanoma) [µM] | GI50 (MCF7 breast) [µM] | TGI (MCF7 breast) [µM] | GI50 (MDA-MB-435) [µM] | TGI (MDA-MB-435) [µM] | GI50 (NCI-H522 lung) [µM] | GI50 (RPMI-8226 leukemia) [µM] | GI50 (RXF 393 renal) [µM] | GI50 (SF-268 CNS) [µM] | GI50 (SF-539 CNS) [µM] | GI50 (SK-OV-3 ovarian) [µM] | GI50 (CAKI-1 renal) [µM] |
| --- | --- | --- | --- | --- | --- | --- | --- | --- | --- | --- | --- | --- | --- | --- | --- | --- | --- | --- | --- | --- |
| CCCCCCc1cc(C(=O)Nc2cccc(C(F)(F)F)c2)nc(N)n1 | > 100 | > 100 | > 100 | > 100 | > 100 | > 100 | > 100 |  |  |  |  |  |  |  |  |  |  |  |  |  |
| CCCCCCCCCCCC(=O)OCCOCCOCCOCCOCCOCc1ccc(OC)cc1 | > 100 | > 100 | > 100 | > 100 | > 100 |  | > 100 | > 100 |  |  |  |  |  |  |  |  |  |  |  |  |
| c1ccc(SC(CCCCC(Sc2ccccc2)Sc2ccccc2)Sc2ccccc2)cc1 | > 100 |  | > 100 | > 100 | > 100 | > 100 | > 100 |  |  |  |  |  |  |  |  |  |  |  |  |  |
| Cc1c(C#N)c(=O)[nH]c(=O)n1CCN1CCN(C(=O)NCCCCCCNC(=O)N2CCN(CCn3c(C)c(C#N)c(=O)[nH]c3=O)CC2)CC1 | > 100 |  | > 100 | > 100 |  | > 100 | > 100 |  |  |  |  |  |  |  |  |  |  |  |  |  |
| O=S(=O)(c1ccccc1)C(CN1CCCCC1)S(=O)(=O)c1ccccc1 | > 100 | > 100 | > 100 | > 100 | > 100 | > 100 | > 100 | > 100 |  |  |  |  |  |  |  |  |  |  |  |  |
| C=CC(=O)N(C)[C@H]1C[C@H]2OC(C)(C1OC)n1c3ccccc3c3c4c(c5c6ccccc6n2c5c31)C(=O)NC4 (stereo partly drawn) |  | 0.449 | 1.5 | 0.157 | 1.26 | 0.379 | 0.318 | 0.565 | 0.0706 | 0.123 | > 50 | 0.364 | 3.9 | 0.0839 | 0.103 | 0.0221 | 0.0599 | 0.083 | 0.0955 |  |
| COC1CC(OS(=O)(=O)c2ccc(C)cc2)C(OC(=O)c2ccccc2)C(C)O1 (stereo not drawn) | > 100 | > 100 | > 100 | > 100 | > 100 | > 100 | > 100 | > 100 | > 100 |  |  |  |  | > 100 |  | > 10 |  | > 100 | > 100 | > 100 |
| CCOC(=O)C(=O)Nc1c(CC)cccc1C(C)C | > 100 | > 100 | > 100 | > 100 | > 100 | > 100 | > 100 |  |  |  |  |  |  |  |  |  |  |  |  |  |
| CCCn1c(C)nc2c1C(=O)c1ccccc1C2=O | 42.4 | 9.35 | > 100 |  | > 100 | > 100 | > 100 | 75.1 | 2.71 | 30.9 | > 100 | 17.2 | 32.9 | 18.7 | 17.2 |  | 20.8 | 27.1 | 86.2 | 12.2 |
| Cc1ccc(-c2cc(-c3ccc(C)cc3)nc(NCCNc3ccnc4cc(Cl)ccc34)n2)cc1 | 2.82 | 3.52 | 4.45 |  | 3.54 | 3.6 | 3.34 | 3.51 | 1.82 | 1.75 | 3.64 | 1.77 | 3.35 | 1.75 | 1.85 |  | 1.72 | 1.91 | 1.75 | 1.43 |
